# Assay results: article PMC4698058 (Fitoterapia, 2015)
# Biological target: T1, recombinant human M1 receptor (Homo sapiens, UniProt P11229)
# T1 sequence (P11229 1-460): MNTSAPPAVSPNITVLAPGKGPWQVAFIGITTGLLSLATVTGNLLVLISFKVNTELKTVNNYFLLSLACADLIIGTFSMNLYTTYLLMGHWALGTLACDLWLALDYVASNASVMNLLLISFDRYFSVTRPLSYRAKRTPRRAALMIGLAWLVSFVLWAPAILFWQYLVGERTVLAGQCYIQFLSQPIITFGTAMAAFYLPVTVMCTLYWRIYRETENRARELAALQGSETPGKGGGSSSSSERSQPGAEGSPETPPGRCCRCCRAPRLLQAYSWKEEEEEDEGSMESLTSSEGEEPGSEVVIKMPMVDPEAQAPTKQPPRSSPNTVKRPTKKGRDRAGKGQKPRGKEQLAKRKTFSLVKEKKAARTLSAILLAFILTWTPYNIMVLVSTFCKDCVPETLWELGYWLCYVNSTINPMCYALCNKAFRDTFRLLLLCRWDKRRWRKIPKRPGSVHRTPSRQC
# Assay: Inhibition of carbacol-induced Ca2+ mobilization in CHO-M1 cells
# Assay type: cell-based
# Details: for inhibition of carbacol induced M1 receptor activities: compound at 10 μM
Molecule,inhibition of carbacol induced M1 receptor activities (CHO-M1 cells),other results
"O=C(O)/C=C/c1ccc(O)c(O)c1 [caffeic acid, reference compound]",,"activity against M1 receptor (concentrations up to 10 μM, CHO-M1 cells): did not show any activity"
"NCCCCNC(=O)/C=C/c1ccc(O)c(O)c1 [compound 6, cafeoylputrescine]",35-40%,
scotanamine A [compound 1],35-40%,
scotanamine C [compound 3],,"IC50 (read-out: IC50, inhibitory activity against M1 receptor): 7.8 µM"
